Source: paper PMC7608815 (Science Advances, 2020)

Legend:
SlMT3 = molecular target: T1, SlMT3 (Solanum lycopersicum, UniProt D2Y3T9); test: yeast feeding assay, qToF-MS of methylation product; format: cell-based; conditions: 100 uM fed substrate plus endogenous yeast 3-HAA, 72 h, 30 C
T1 sequence (D2Y3T9 1-361): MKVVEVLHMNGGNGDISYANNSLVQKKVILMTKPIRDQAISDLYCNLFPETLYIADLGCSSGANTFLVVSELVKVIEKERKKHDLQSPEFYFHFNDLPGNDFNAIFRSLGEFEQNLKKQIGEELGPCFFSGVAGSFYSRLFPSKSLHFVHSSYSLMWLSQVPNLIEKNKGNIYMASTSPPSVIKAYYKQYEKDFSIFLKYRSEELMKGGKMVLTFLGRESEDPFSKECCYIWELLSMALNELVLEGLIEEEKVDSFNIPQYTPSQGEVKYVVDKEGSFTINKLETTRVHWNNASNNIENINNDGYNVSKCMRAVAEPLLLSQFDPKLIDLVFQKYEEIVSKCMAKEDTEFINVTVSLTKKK

AtCHS = molecular target: T2, AtCHS (Arabidopsis thaliana, UniProt P13114); test: LC-MS/MS product detection, end point […] h; format: biochemical; conditions: 200 uM p-coumaroyl-CoA, 30 C
T2 sequence (P13114 2-395): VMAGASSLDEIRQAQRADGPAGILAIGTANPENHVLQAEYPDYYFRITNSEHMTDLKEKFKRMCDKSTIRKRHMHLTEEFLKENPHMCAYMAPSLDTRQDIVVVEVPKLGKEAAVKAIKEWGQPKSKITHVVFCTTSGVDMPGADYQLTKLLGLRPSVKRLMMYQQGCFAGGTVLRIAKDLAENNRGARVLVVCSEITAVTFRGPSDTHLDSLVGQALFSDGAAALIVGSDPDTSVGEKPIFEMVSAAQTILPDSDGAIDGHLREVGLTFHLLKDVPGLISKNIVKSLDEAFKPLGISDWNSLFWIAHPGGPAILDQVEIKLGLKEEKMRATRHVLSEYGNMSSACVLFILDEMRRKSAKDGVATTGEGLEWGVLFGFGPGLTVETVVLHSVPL

Nc1c(O)cccc1C(=O)O [3-HAA]
yeast feeding assay, qToF-MS of methylation product (SlMT3): SlMT3 exhibited detectable activity only toward 3-HAA

COC(=O)c1cccc(O)c1N [compound 1, Methyl 2-amino-3-hydroxybenzoate]
LC-MS/MS product detection, end point 4 h (AtCHS; 200 uM 3-HAA methyl ester, amide synthesis): highest production of amide with 3-HAA methyl ester

CC(C)(COP(=O)(O)OP(=O)(O)OC[C@H]1O[C@@H](n2cnc3c(N)ncnc32)[C@H](O)[C@@H]1OP(=O)(O)O)[C@@H](O)C(=O)NCCC(=O)NCCSC(=O)CC(=O)O [malonyl-CoA]
LC-MS/MS product detection, end point 4 h (AtCHS; 200 uM malonyl-CoA, naringenin chalcone synthesis): its activities on malonyl-CoA and 3-HAA methyl ester were analyzed under the same assay conditions
